{
  "source": "paper PMC3678512",
  "about": "“Synthesis and physicochemical characterization of novel phenotypic probes targeting the nuclear factor-kappa B signaling pathway” (Beilstein Journal of Organic Chemistry, 2013)",
  "key": {"[1]": {"test_system": "non-NOD-stimulated NF-κB pathways", "test": "Non-NOD-stimulated NF-κB pathway reporter assays (TNF-α, doxorubicin, PMA/ionomycin)", "type": "cell-based", "conditions": "doxorubicin and PMA/ionomycin reporter assays"}, "NOD1": {"biological_target": "T1, NOD1 (Homo sapiens, UniProt Q9Y239)", "T1 construct": "luciferase production in HEK 293T cells, which has endogenous NOD1 levels; endogenous in cells; host or cells: HEK 293T", "T1 sequence (Q9Y239 1-953)": "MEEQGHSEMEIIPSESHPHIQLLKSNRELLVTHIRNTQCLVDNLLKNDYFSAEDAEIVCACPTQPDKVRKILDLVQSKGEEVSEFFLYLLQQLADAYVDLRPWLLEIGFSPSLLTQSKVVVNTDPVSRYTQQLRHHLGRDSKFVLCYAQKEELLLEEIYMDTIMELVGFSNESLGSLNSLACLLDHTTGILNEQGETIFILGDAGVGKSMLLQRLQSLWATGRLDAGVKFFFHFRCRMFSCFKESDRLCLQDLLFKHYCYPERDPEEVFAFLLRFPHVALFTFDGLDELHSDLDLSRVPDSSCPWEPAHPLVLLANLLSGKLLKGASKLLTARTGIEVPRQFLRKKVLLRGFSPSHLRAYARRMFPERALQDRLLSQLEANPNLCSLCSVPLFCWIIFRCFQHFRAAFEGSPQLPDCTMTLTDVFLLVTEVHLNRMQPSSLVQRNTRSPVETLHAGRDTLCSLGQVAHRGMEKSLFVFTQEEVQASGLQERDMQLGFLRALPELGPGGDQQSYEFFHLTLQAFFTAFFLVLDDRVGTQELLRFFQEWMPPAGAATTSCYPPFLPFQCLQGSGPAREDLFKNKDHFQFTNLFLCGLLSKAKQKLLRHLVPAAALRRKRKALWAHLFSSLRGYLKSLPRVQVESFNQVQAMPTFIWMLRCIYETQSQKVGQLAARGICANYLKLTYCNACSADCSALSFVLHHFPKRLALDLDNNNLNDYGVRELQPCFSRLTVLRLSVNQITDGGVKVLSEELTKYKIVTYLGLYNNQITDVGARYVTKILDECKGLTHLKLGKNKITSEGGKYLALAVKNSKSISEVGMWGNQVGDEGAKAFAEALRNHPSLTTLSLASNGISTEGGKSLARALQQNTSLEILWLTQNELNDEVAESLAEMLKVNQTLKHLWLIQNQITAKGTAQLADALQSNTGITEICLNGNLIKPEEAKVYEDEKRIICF", "test": "γ-tri-DAP-stimulated luciferase production in HEK 293T cells (NF-κB-linked reporter assay)", "type": "cell-based", "conditions": "HEK 293T cells with endogenous NOD1, NF-κB-linked reporter; read-out: IC50, inhibition of γ-tri-DAP-stimulated luciferase production"}, "Aqueous solubility": {"test": "Aqueous solubility", "type": "physicochemical", "conditions": "for solubility: aqueous medium", "description": "(§1) The probes were evaluated using known in vitro ADME/T assays to understand their overall pharmacological properties (Table 2). […] The PAMPA (parallel artificial membrane permeability assay) assay is used as an in vitro model of passive, transcellular permeability. An artificial membrane immobilized on a filter is placed between a donor and acceptor compartment. […] It is not yet known whether it represents a species specific CPY450 inhibitor."}, "[2]": {"test": "Hepatic toxicity in immortalized human hepatocytes", "type": "cell-based", "conditions": "Fa2N-4 immortalized human hepatocytes, read-out: Hepatic toxicity LC50", "description": "as §1"}, "[3]": {"test_system": "NOD2-dependent IL-8 secretion in MCF-7 cells", "test": "NOD2-dependent IL-8 secretion in MCF-7 cells", "type": "cell-based"}, "[4]": {"test_system": "TNF-α-dependent IL-8 secretion in MCF-7 cells", "test": "TNF-α-dependent IL-8 secretion in MCF-7 cells", "type": "cell-based"}, "[5]": {"test": "Hepatic microsome stability, human", "type": "in vitro ADME", "conditions": "human, compound at 1 μM, 60 min", "description": "as §1"}, "[6]": {"test": "PAMPA (parallel artificial membrane permeability assay)", "type": "in vitro ADME", "description": "as §1"}, "[7]": {"test": "Hepatic microsome stability, mouse", "type": "in vitro ADME", "conditions": "compound at 1 μM, 60 min", "description": "as §1"}, "[8]": {"test_system": "NOD1 (γ-tri-DAP) dependent IL-8 secretion", "test": "NOD1 (γ-tri-DAP) dependent IL-8 secretion", "type": "cell-based"}, "NOD2": {"test_system": "NOD2", "test": "MDP-stimulated signal transduction in NOD2 reporter cell lines", "type": "cell-based", "conditions": "reporter cell lines with low or overexpressed NOD2"}},
  "note": "Where two headings read alike, the source gives them in different places.",
  "data": [
    {"smiles": "C/C=C/Cn1c(SCCCc2ccccc2)nc2c1c(=O)[nH]c(=O)n2C", "note": "[Probe 17]", "values": [
      {"measurement": "Selectivity over non-NOD-stimulated NF-κB pathways", "setting": "[1]", "result": "selective"},
      {"measurement": "IC50", "setting": "NOD1", "result": 1540, "unit": "nM"},
      {"measurement": "Solubility (in words)", "setting": "Aqueous solubility; across pH 5 to 7.4", "result": "lowest solubility"},
      {"measurement": "solubility", "setting": "Aqueous solubility; aqueous buffer, pH 5.0, read-out: Aqueous solubility pH 5.0", "result": 1.5, "unit": "µM"},
      {"measurement": "solubility", "setting": "Aqueous solubility; pH 6.2, aqueous buffer, read-out: Aqueous solubility pH 6.2", "result": 1.8, "unit": "µM"},
      {"measurement": "solubility", "setting": "Aqueous solubility; pH 7.4, aqueous buffer, read-out: Aqueous solubility pH 7.4", "result": 1.7, "unit": "µM"},
      {"measurement": "CC50", "setting": "[2]", "result": "> 50000", "unit": "nM"},
      {"measurement": "Inhibition of NOD2-dependent IL-8 secretion", "setting": "[3]", "result": "neither inhibited"},
      {"measurement": "Inhibition of TNF-α-dependent IL-8 secretion", "setting": "[4]", "result": "neither inhibited"},
      {"measurement": "Hepatic microsome stability, human (% remaining)", "setting": "[5]", "result": 8.8, "unit": "% remaining"},
      {"measurement": "PAMPA Pe, donor pH 5.0", "setting": "[6]; donor pH 5.0, acceptor pH 7.4, compound at 50 μM", "result": "1269 10^−6 cm/s"},
      {"measurement": "PAMPA Pe, donor pH 6.2", "setting": "[6]; donor pH 6.2, acceptor pH 7.4, compound at 50 μM", "result": "1516 10^−6 cm/s"},
      {"measurement": "PAMPA Pe, donor pH 7.4", "setting": "[6]; donor pH 7.4, acceptor pH 7.4, compound at 50 μM", "result": "1344 10^−6 cm/s"},
      {"measurement": "Hepatic microsome stability, mouse (% remaining)", "setting": "[7]", "result": 0.86, "unit": "% remaining"},
      {"measurement": "Inhibition of NOD1 (γ-tri-DAP) dependent IL-8 secretion", "setting": "[8]", "result": "selectively inhibited IL-8 secretion"},
      {"measurement": "Selectivity for NOD1-dependent over MDP-stimulated (NOD2-dependent) signal transduction", "setting": "NOD2", "result": "> 8", "unit": "fold"}
    ]}
  ]
}
